Tests used:
Format in all cases: in vivo
[1] = tested on: Two-spotted Spider Mite (Tetranychus urticae); test: Insecticidal test for two-spotted spider mite, ovicide method; design: key: A: 90–100; B: 80–89; C: 70–79; D: 60–69; E: 50–59; F: less than 50; G: Inactive; conditions: cotton leaf discs, 6 days
Experimental: Insecticidal Test for Two-spotted Spider Mite (Tetranychus urticae)
Ten adult female two-spotted spider mites were placed on eight 2.2 cm leaf discs of cotton leaf, allowed to oviposit over 24 hours, and thereafter removed. […] Discs were placed on an agar substrate and held at 24° C. and 90% RH for 6 days.

[2] = tested on: Tobacco Budworm (Heliothis virescens); test: Insecticidal test for tobacco budworm, treated cotton cotyledon leaf disc; design: key: A: 90–100; B: 80–89; C: 70–79; D: 60–69; E: 50–59; F: less than 50; G: Inactive; conditions: cotton cotyledon leaf-dip, 2nd instar larvae, 5 days
Description: (§1) The compounds are useful for reducing populations of insects and mites and are useful in a method of inhibiting an insect or mite population which comprises applying to a locus of the insect or mite an effective insect- or mite-inactivating amount of a compound of formula (1). The “locus” of insects or mites is a term used herein to refer to the environment in which the insects or mites live or where their eggs are present, including the air surrounding them, the food they eat, or objects which they contact. For example, insects or mites which eat or contact edible or ornamental plants can be controlled by applying the active compound to plant parts such as the seed, seedling, or cutting which is planted, the leaves, stems, fruits, grain, or roots, or to the soil in which the roots are growing. It is contemplated that the compounds might also be useful to protect textiles, paper, stored grain, seeds, domesticated animals, buildings or human beings by applying an active compound to or near such objects. The term “inhibiting an insect or mite” refers to a decrease in the numbers of living insects or mites, or a decrease in the number of viable insect or mite eggs. The extent of reduction accomplished by a compound depends, of course, upon the application rate of the compound, the particular compound used, and the target insect or mite species. At least an inactivating amount should be used. The terms “insect-inactivating amount” and “mite-inactivating amount” are used to describe the amount, which is sufficient to cause a measurable reduction in the treated insect or mite population. Generally an amount in the range from about 1 to about 1000 ppm by weight active compound is used. For example, insects and mites which can be inhibited include, but are not limited to: • Lepidoptera—Heliothis spp., Helicoverpa spp., Spodoptera spp., Mythimna unipuncta, Agrotis ipsilon, Earias spp., Euxoa auxiliaris, Trichoplusia ni, Anticarsia gemmatalis, Rachiplusia nu, Plutella xylostella, Chilo spp., Scirpophaga incertulas, Sesamia inferens, Cnaphalocrocis medinalis, Ostrinia nubilalis, Cydia pomonella, Carposina niponensis, Adoxophyes orana, Archips argyrospilus, Pandemis heparana, Epinotia aporema, Eupoecilia ambiguella, Lobesia botrana, Polychrosis viteana, Pectinophora gossypiella, Pieris rapae, Phyllonorycter spp., Leucoptera malifoliella, Phyllocnisitis citrella • Coleoptera—Diabrotica spp., Leptinotarsa decemlineata, Oulema oryzae, Anthonomus grandis, Lissorhoptrus oryzophilus, Agriotes spp., Melanotus communis, Popillia japonica, Cyclocephala spp., Tribolium spp. • Homoptera—Aphis spp., Myzus persicae, Rhopalosiphum spp., Dysaphis plantaginea, Toxoptera spp., Macrosiphum euphorbiae, Aulacorthum solani, Sitobion avenae, Metopolophium dirhodum, Schizaphis graminum, Brachycolus noxius, Nephotettix spp., Nilaparvata lugens, Sogatella furcifera, Laodelphax striatellus, Bemisia tabaci, Trialeurodes vaporariorum, Aleurodes proletella, Aleurothrixus floccosus, Quadraspidiotus perniciosus, Unaspis yanonensis, Ceroplastes rubens, Aonidiella aurantii • Hemiptera—Lygus spp., Eurygaster maura, Nezara viridula, Piezodorus guildingi, Leptocorisa varicornis • Thysanoptera—Frankliniella occidentalis, Thrips spp., Scirtothrips dorsalis • Isoptera—Reticulitermes flavipes, Coptotermes formosanus • Orthoptera—Blattella germanica, Blatta orientalis, Gryllotalpa spp. • Diptera—Liriomyza spp., Musca domestica, Aedes spp., Culex spp., Anopheles spp. • Hymenoptera—Iridomyrmex humilis, Solenopsis spp., Monomorium pharaonis, Atta spp., Pogonomyrmex spp., Camponotus spp. • Siphonaptera—Ctenophalides spp., Pulex irritans • Acarina—Tetranychus spp., Panonychus spp., Eotetranychus carpini, Phyllocoptruta oleivora, Aculus pelekassi, Brevipalpus phoenicis, Boophilus spp., Dermacentor variabilis, Rhipicephalus sanguineus, Amblyomma americanum, Ixodes spp., Notoedres cati, Sarcoptes scabiei, Dermatophagoides spp. […]

[3] = tested on: Sweetpotato Whitefly (Bemisia tabacia); test: Insecticidal test for sweetpotato whitefly, spray on cotton plants; design: key: A: 90–100; B: 80–89; C: 70–79; D: 60–69; E: 50–59; F: less than 50; G: Inactive; conditions: 200 ppm spray, 13 days, large nymphs
Experimental: Insecticidal Test for Sweetpotato Whitefly (Bemisia tabacia)
Four mg of each test compound was dissolved by adding 4 mL of a 90:10 acetone:ethanol solvent mixture to the vial containing the sample compound. This solution was added to 16 mL of water containing 0.05% Tween 20 surfactant to produce 20 mL of an 200 ppm spray solution.
Five-week-old cotton plants reared in a greenhouse were stripped of all foliage except for the two uppermost true leaves that were greater than 5 cm in diameter. These plants were then placed into a laboratory colony of whiteflies for two days for oviposition by the colony females. All whiteflies were then removed from the test plants with pressurized air. The spray solution was then applied to the test plants with a hand-held syringe fitted with hollow cone nozzle. One mL spray solution was applied to each leaf top and bottom for a total of 4 mL per plant. Four replications of each test compound utilized a total of 16 mL spray solution. Plants were air dried and then placed in a holding chamber (28° C. and 60% RH) for 13 days. Compound efficacy was evaluated by counting, under an illuminated magnifying glass, the number of large nymphs (3rd–4th instar) per leaf.
Percent control based on reduction of large nymphs of a test compound compared to solution-only (no test compound) sprayed plants is reported in Tables 1–4.

[4] = tested on: Cotton Aphid (Aphis gossypii); test: Insecticidal test for cotton aphid, spray on infested squash cotyledons; conditions: 50 ppm spray, 3 days
Experimental: Insecticidal Test for Cotton Aphid (Aphis gossypii)
To prepare spray solutions, 1 mg of each test compound was dissolved into 1 mL of a 90:10 acetone:ethanol solvent. This 1 mL of chemical solution was added to 19 mL of water containing 0.05% Tween 20 surfactant to produce a 50 ppm spray solution.
Squash cotyledons were infested with cotton aphid (all life stages) 16–20 hours prior to application of spray solution. The solution was sprayed on both sides of each infested squash cotyledon (0.5 mL×2 each side) with a sweeping action until runoff. The plants were allowed to air dry and held for 3 days in a controlled room at 26° C. and 40% RH after which time the test was graded. Grading was by actual count using a dissecting microscope and comparison of test counts to the untreated check. Results are given in Tables 1–4 as percent control based on population reduction versus the untreated.

[5] = tested on: Cabbage Looper (Trichoplusia ni); test: Insecticidal test for cabbage looper, treated cabbage leaf disc; design: key: A: 90–100; B: 80–89; C: 70–79; D: 60–69; E: 50–59; F: less than 50; G: Inactive; conditions: cabbage leaf-dip, 2nd instar larvae, 5 days
Description: as §1

[6] = tested on: Beet Armyworm (Spodoptera exigua); test: Insecticidal test for beet armyworm, treated lepidopteran diet; design: key: A: 90–100; B: 80–89; C: 70–79; D: 60–69; E: 50–59; F: less than 50; G: Inactive; conditions: on diet surface, second-instar larvae, 5 days
Description: as §1

Row | SMILES | SM: activity against two-spotted spider mite (% control rating) [1] | TBW: activity at 400 ppm against tobacco budworm (% control rating) [2] | WF: activity at 200 ppm against whitefly (% control rating) [3] | CA: activity at 50 ppm against cotton aphid (% control rating) [4] | CL: activity at 400 ppm against cabbage looper (% control rating) [5] | BAW: activity at 400 ppm against beet armyworm (% control rating) [6]
1 | Cn1nc(-c2c(F)cccc2Cl)nc1-c1sc(-c2ccc(Br)cc2)c(Cl)c1Cl | G | G | E (50–59) | C (70–79) | A (90–100) | A (90–100)
2 | Cn1nc(-c2c(F)cccc2Cl)nc1-c1sc(-c2ccc(Br)cc2)cc1Cl | A (90–100) | A (90–100) | G | B (80–89) | A (90–100) | A (90–100)
3 | Cc1cc(-c2cccc(OC(F)(F)F)c2)sc1-c1nc(-c2c(F)cccc2Cl)nn1C | A (90–100) | G | F (less than 50) | B (80–89) | A (90–100) | G
4 | Cc1cc(-c2ccc(F)cc2)sc1-c1nc(-c2c(F)cccc2Cl)nn1C | A (90–100) | F (less than 50) | G | B (80–89) | A (90–100) | D (60–69)
5 | Cc1cc(-c2ccc(Cl)c(F)c2)sc1-c1nc(-c2c(F)cccc2Cl)nn1C | A (90–100) | B (80–89) | G | A (90–100) | A (90–100) | A (90–100)
6 | Cc1cc(-c2ccc(Cl)cc2F)sc1-c1nc(-c2c(F)cccc2Cl)nn1C | A (90–100) | F (less than 50) | G | C (70–79) | A (90–100) | A (90–100)
7 | Cc1cc(-c2cccc(C(F)(F)F)c2F)sc1-c1nc(-c2c(F)cccc2Cl)nn1C | A (90–100) | D (60–69) | G | D (60–69) | A (90–100) | A (90–100)
8 | Cc1cc(-c2ccc3c(c2)COC3)sc1-c1nc(-c2c(F)cccc2Cl)nn1C | C (70–79) | G | G | D (60–69) | A (90–100) | B (80–89)
9 | Cc1cc(-c2ccc(OC(C)C)cc2)sc1-c1nc(-c2c(F)cccc2Cl)nn1C | A (90–100) | G | – | D (60–69) | B (80–89) | D (60–69)
10 | Cc1c(-c2nc(-c3c(F)cccc3Cl)nn2C)csc1-c1ccc(SCF)cc1 | – | G | F (less than 50) | B (80–89) | G | B (80–89)
11 | Cc1sc(-c2ccc(C(F)(F)F)cc2F)c(C)c1-c1nc(-c2c(F)cccc2Cl)nn1C | – | G | – | B (80–89) | A (90–100) | A (90–100)

— patent US7056940B2, “Insecticidal 3-(2,6-disubstituted phenyl)-5-[5-arylthien-2-yl]-1,2,4-triazoles” (Dow AgroSciences LLC, priority 2001, dated 2006)
